Legend:
xenografts (MDA-MB 468) = test: Confocal analysis of xenograft tissue slices after IP injection; type: in vivo; conditions: harvested one hour after injection (IP), FIG. 8
Method: Tissue slices were prepared from the harvested xenografts and prepared for analysis by confocal analysis. […] A tissue slice from the control experiment is shown in which the animal was injected with vehicle alone (DMSO). Only background fluorescence is detected. In FIG. 8 the green staining from compound 10 fluorescence appears white or light gray, while blue from the DAPI-stained nuclei appears dark gray.

BT474 = test: Fluorescence microscopy uptake of probe in tumor cells; type: cell-based, human; conditions: micromolar concentrations, FIG. 4
Excerpt: In one experiment, the fluorescein compound 10 was applied at micromolar concentrations to four types of tumor cells. […] The probe (10) fluoresces to give green staining in images obtained; in FIG. 4, the green staining appears white.

MCF7 cells = test: Anion exchange chromatography of extracts of cells treated with compound 10; type: cell-based; conditions: MCF7 cells treated with compound 10; peak at 49 minutes
Method: (§1) Hsp90 was purified from pig mammary gland as described in Hughes et al., Bioorg Med Chem. 2012, 20(10):3298-3305. The purified protein (0.3 g) was mixed with an excess of compound 10. The unbound probe was removed by dialysis and the labeled protein subjected to microanion exchange chromatography using a Pharmacia SMART system. Column fractions (100 μL) were collected and analyzed for fluorescence in a plate reader. […] The chromatography experiment was then repeated on cell extracts prepared from MCF7 and BT474 cells treated with compound 10.

BT474 cells = test: as above; type: cell-based; conditions: BT474 cells treated with compound 10; peak at 49 minutes
Method: as §1

Hsp90 = test: Recovery of drug-bound protein from tumors of mice by micro anion-exchange chromatography; type: in vivo; conditions: 1 mg IV, tumors excised after 2 hours, FIG. 17
Method: Mice were injected (IV) with 1 mg of compound 10 and the tumors were excised from the animal after 2 hours. Tissue extracts were prepared and characterized by micro anion-exchange chromatography. Column fractions were analyzed for the presence of compound 10 by fluorescence and mass spectrometry.

[1] = system: TZM-bl (Hela derived) cells infected with NL4.3 virus (HIV-1); test: Confocal microscopy of cells infected with HIV-1 treated with compound 10; type: cell-based
Method: TZM-bl (Hela derived) cells were added on glass coverslips in 24-well plates (1×10^5 cells/well) and were allowed to attach to cover slips overnight. For infection NL4.3 virus (HIV-1) was added to medium to achieve 10 ng/mL P24 protein concentration along with DEAE dextran at a final concentration 15 μg/mL. After 48 hours of infection, compound 10 was added to the medium and incubated for 1 hour at 37° C. Later the infected cells were washed twice with phosphate-buffered saline (PBS) and fixed for 20 min in 4% paraformaldehyde. They were washed twice with PBS and permeabilized for 30 min in 50% ice cold methanol on ice. Blocking was carried out using 1% FBS for 30 minutes at room temperature after two washes with PBS. Cells were then incubated for 2 hours at room temperature with antibody against HIV-1 capsid protein P24 at 1:100 dilutions in PBS. The antibody was obtained from the AIDS Reference and Reagent Program (HIV-1 p24 Monoclonal Antibody-183-H12-5C, Catalogue number: 3537). The cells were washed three times in PBS before and after 1 h of incubation with anti-mouse Texas Red secondary antibody (1:250). (Texas Red® Goat Anti-Mouse IgG (H+L), catalogue number: T682, Life technologies). […]

Q: Which results are given for Cc1nn(-c2ccc(C(N)=O)c(NCCCOCCOCCOCCOCCOCCCNC(=S)Nc3ccc4c(c3)C(=O)OC43c4ccc(O)cc4Oc4cc(O)ccc43)c2)c2c1C(=O)CC(C)(C)C2 [Compound 10, 2-((1-((3′,6′-dihydroxy-3-oxo-3H-spiro[isobenzofuran-1,9′-xanthen]-5-yl)amino)-1-thioxo-6,9,12,15,18-pentaoxa-2-azahenicosan-21-yl)amino)-4-(3,6,6-trimethyl-4-oxo-4,5,6,7-tetrahydro-1H-indazol-1-yl)benzamide]?
A: presence of compound in tumor cells of xenograft (xenografts (MDA-MB 468)): detected within the tumor cells; uptake of the probe (BT474): take up the probe readily; fluorescence peak of cell extract (MCF7 cells): co-elutes with Hsp90; fluorescence peak of cell extract (BT474 cells): co-elutes with Hsp90; two minor peaks of fluorescence of tumor extract (Hsp90; fractions 27-35): attributable to binding to degraded forms of the N terminal domain of Hsp90; major peak of fluorescence of tumor extract (Hsp90; fractions 49-53): correlates with elution of full length Hsp90; detection of HIV infected cells ([1]; 48 hours of infection, 1 hour at 37° C., FIG. 16): can be used to detect cells infected with HIV; recognition of uninfected cells ([1]; FIG. 16 panel D): do not recognize uninfected cells

Reference: patent publication US10927115B2, “Substituted heterocycles for targeting Hsp90” (Duke University, priority 2012, dated 2021)
